Earlier results on one compound are cited in paper PMC8923172 (Antimicrobial Agents and Chemotherapy, 2022).

The data set deals with LPS-induced ALI. As to conditions: 2 mg/kg; cited from earlier work.

Structures are written as SMILES.

Regarding `C[C@@H]1C[C@H]2[C@@H]3CCC4=CC(=O)C=C[C@]4(C)[C@@]3(F)[C@@H](O)C[C@]2(C)[C@@]1(O)C(=O)CO` [dexamethasone], the “decrease in IFN-γ in bronchoalveolar lavage fluid” value was around 43%, the “decrease in IL-6 in bronchoalveolar lavage fluid” value was “approximately 26%” and the “decrease in IP-10 (CXCL10) in bronchoalveolar lavage fluid” value is recorded as around 50%.
